PMC12505902, “Inhibitors of trehalose-6-phosphate synthase activity in fungal pathogens compromise thermal tolerance pathways” (mBio, 2025)

System: C. auris (B11220)
Test: MIC dose-response assay in YPD
Format: cell-based
Conditions: Candidozyma auris
Method: We tested the effects of 4456dh on live cells by determining the minimal inhibitory concentration causing 80% growth reduction (MIC80). Wild-type (WT) C. albicans and C. auris cells were incubated with 4456dh in yeast-peptone-dextrose (YPD) medium at 42°C and 39°C, respectively (Fig. 4A). […] 4456dh inhibited the growth of C. auris with an MIC80 of 7 mM at 39°C (Fig. 4A). The MIC80 increased at 30°C to greater than 13 mM (Fig. S7A).
Fig 4 4456dh inhibits the growth of Candida and Cryptococcus species. Two-fold dose response assays were performed against (A) C. albicans at 42°C and C. auris at 39°C, (B) C. glabrata at 42°C, and (C) C. neoformans, C. deneoformans, and C. gattii at 37°C. 4456dh was administered at the concentrations indicated. Cultures were grown in YPD at the listed temperatures for 48 hours for Candida species and 72 hours for Cryptococcus species. Experimental temperatures reflect the temperatures at which the fungi experience heat stress. Left: relative growth of treated samples was calculated by averaging technical triplicates and normalizing the OD600 of each treated well to the average OD600 of the untreated WT controls, after the absorbance due to the compound was subtracted. The MIC80 values, calculated based on the OD600 values, are indicated in the white text on each heat map. […]
102 determined by identifying the inflection point of the derivative data. […]
104 The catalytic activity of C. albicans Tps1 and C. neoformans Tps1 was measured via a continuous […]
110 bottomed 96-well microtiter plates and the decrease in absorbance at 340 nm during the initial
111 reaction rate was recorded using a plate reader (Tecan). The decrease in absorbance was
112 analyzed for the first 200s of the kinetic reaction. […]
116 the overnight cultures was quantified by measuring the OD600 and corrected for the background
117 absorbance of the medium. Antifungal potency for 4456dh was assessed by minimum inhibitory […]
124 technical replicates. Growth, as determined by a reading of absorbance at 600 nm, was
125 normalized to untreated controls and was corrected for the absorbance of 4456dh in the YPD […]

Cn1cc(-c2csc(NC(=O)Cc3ccccn3)n2)cn1 [Compound 4456dh]
MIC80 (30°C, YPD): > 13 mM | MIC80 (39°C, YPD, 48 hours): 7 mM | MIC80 (Supplemental Table 5, This publication): 2780 µg/mL
